One assay relates to AMT. Type of assay: cell-based, rat. The settings on record: RBL-2H3 cells; read-out: AMT IC50. On the procedure: AEA. Cells were incubated with [^14C] AEA for 5 min at 37° C., in the presence or absence of varying concentrations of the inhibitors. Residual [^14C] AEA in the incubation media after extraction with CHCl3/CH3OH 2:1 (by vol.), determined by scintillation counting of the lyophilized organic phase, was used as a measure of the AEA that was taken up by cells.
CP55940 from whole rat brain membranes.

Assay [1] deals with anandamide membrane transporter (AMT). Type of assay: cell-based, rat. The settings on record: [14C]AEA uptake, RBL-2H3 cells. On the procedure:
(§1) The effect of compounds on the enzymatic hydrolysis of [^14C] AEA (6 μM) was studied by using membranes prepared from N18TG2 cells incubated with increasing concentrations of compounds in 50 mM Tris-HCL, pH 9, for 30 min at 37° C. [^14C] Ethanolamine produced from [^14C] AEA hydrolysis was quantified by scintillation spectroscopy and used to measure fatty acid amide hydrolase (FAAH) activity. The effect of compounds on the uptake of AEA by RBL-2H3 cells was studied with a procedure analogous to that described in Melck, ibid., and modified as described in Hilliard et al., J. Neurochem. 69:631-638 (1997). Cells were incubated with [^14C] AEA (4μM) for 5 min. at 37° C., in the presence or absence of varying concentrations of the inhibitors. Residual [1^4C] AEA in the incubation media after extraction with CHCl3/CH30H (2:1 by volume) was used as a measure of the AEA that was taken up by cells.
In consideration of the potent inhibition of the AMT previously observed with arvanil and its derivatives (see Melck, ibid), the seven compounds were also tested for their inhibitory effect on [^4C] […] Thus, the results in Table 1 confirm the existence of a partial overlap between the ligand recognition properties of VR1 receptors and the AMT (14.24).

For another assay, the target named is human VR1 receptor (Homo sapiens, UniProt Q8NER1). Put plainly: Ca2+ influx (Fluo-3) in HEK-hVR1 cells (Example 2). Format: cell-based. Further details: expressed in transfected cells; host or cells: HEK 293 cells (HEK-hVR1). The note with it: for VR1 efficacy: maximal concentration (usually 10 μM), percent of effect of 4 μM ionomycin. As for the experimental part:
N18TG2 and RBL-2H3 cells were grown as described in Melck et al, Bioch. Biophys. Res. Commun. 262:275-284 (1999). Ionomycin was purchased from Sigma. DMH-arvanil, and six substituted dimethylpentyl (DMP) derivatives of arvanil and met-AEA were synthesized as described in Example 1.
HEK-hVR1 cells were prepared and loaded as described in De Petrocellis, et al., FEBS Lett. 483:52-56 (2000). Experiments were carried out by measuring fluorescence at 25° C. […] Capsazepine (1-5 μM) was added 30 minu. Before the test compounds.
(§2) In Table 1, affinity for CB1 and CB2 receptors was measured in displacement assays carried out using rat brain or spleen membranes and [^3H]CP 55,940 or […], respectively. Potency at human VR1 was established by measuring the stimulatory activity of the compounds on the Ca^2+ intracellular concentration in HEK cells transfected with cDNA encoding the human VR1 receptor. Efficacy at VR1 was measured by expressing the effect of a maximal concentration of each compound (usually 10 μM) as percent of the maximal possible effect obtained with 4 μM ionomycin. Data are means ±SEM of at least n=3 separate determinations. *Ki was determined in the presence of PMSF.

The next assay concerns the target T1, CB2 receptors (Rattus norvegicus, UniProt Q9QZN9).
T1 construct: rat spleen membranes, which contain mostly CB2 receptors; from tissue; host or cells: rat spleen membranes
T1 sequence (Q9QZN9 1-360): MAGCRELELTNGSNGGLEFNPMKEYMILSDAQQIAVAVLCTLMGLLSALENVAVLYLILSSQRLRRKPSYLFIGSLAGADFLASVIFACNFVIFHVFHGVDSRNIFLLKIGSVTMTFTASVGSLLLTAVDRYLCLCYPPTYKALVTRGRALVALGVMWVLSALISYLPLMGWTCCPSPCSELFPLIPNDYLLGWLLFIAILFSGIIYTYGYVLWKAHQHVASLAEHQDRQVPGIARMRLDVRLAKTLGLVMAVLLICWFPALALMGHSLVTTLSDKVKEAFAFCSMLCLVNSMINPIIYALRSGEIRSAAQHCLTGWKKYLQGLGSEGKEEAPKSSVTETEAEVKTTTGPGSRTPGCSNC
Put plainly: CB2 binding, displacement of [3H]WIN55,212-2 from rat spleen membranes. As for the experimental part: (§3) For CB1 receptor binding, [^3H]CP-55,940 (Kd=[…]) was incubated with P2 membranes from whole rat brains as described in Compton et al., J. Pharm. Exp. Ther. 265:218-226 (1993). Displacement curves were generated by incubating drugs with 1 nM of [^3H]CP-55,940. The assays were performed in triplicate, and the results represent the combined data from three individual experiments. A separate set of experiments were conducted in which phenylmthylsulfonylfluoride (PMSF) was added at a concentration of 100 μm in order to prevent possible metabolism of the analogs. CB2 binding assays were performed as described in Melek et al., ibid. In all cases, Ki values were calculated applying the Cheng-Prusoff equation to the IC50 values (obtained by GraphPad) for the displacement of the bound radioligand by increasing concentrations of the test compounds.
as §2
The hydroxy analog is much less CB1 vs. CB2 selective in both series.

Assay [2] concerns the target T2, fatty acid amide hydrolase (FAAH) (Mus musculus, UniProt O08914).
T2 construct: membranes prepared from N18TG2 cells; endogenous in cells; host or cells: N18TG2 cell membranes
T2 sequence (O08914 1-579): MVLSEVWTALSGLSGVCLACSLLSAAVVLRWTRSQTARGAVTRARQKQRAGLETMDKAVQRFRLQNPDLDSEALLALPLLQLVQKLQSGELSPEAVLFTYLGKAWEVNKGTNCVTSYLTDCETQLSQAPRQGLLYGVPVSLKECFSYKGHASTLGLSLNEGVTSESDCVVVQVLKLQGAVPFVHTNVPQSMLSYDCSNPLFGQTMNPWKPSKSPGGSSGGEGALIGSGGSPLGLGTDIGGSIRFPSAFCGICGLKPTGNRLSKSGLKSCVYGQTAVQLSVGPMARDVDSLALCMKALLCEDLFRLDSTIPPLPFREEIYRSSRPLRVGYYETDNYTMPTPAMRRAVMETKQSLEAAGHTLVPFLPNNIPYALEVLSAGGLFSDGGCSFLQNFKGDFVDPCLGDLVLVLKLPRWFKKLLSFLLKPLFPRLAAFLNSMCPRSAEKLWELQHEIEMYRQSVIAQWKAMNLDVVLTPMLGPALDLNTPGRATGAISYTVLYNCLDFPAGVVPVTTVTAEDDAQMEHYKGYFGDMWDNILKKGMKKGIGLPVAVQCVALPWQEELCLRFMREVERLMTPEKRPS
Description: [14C]AEA hydrolysis by N18TG2 cell membranes. Type of assay: biochemical. As for the experimental part: as §1
Accordingly, when the compounds were tested for their capability of inhibiting [^14C] […] This is in agreement with previous observations that Me-AEA, DMH-derivatives of AEA and arvanil are poor substrates for FAAH. The two exceptions were O-1856 and O-1895, which did inhibit the hydrolysis of [^14C] AEA, although not very potently.

In the next assay the target is CB1 receptors (Rattus norvegicus, UniProt P20272). Put plainly: CB1 receptor binding, displacement of [3H]CP-55,940 from rat brain P2 membranes (Example 2). The arrangement: from tissue; host or cells: whole rat brain membranes. The settings on record: for Ki: rat brain membranes. As for the experimental part:
as §3, §2
For orientation: In a radioligand displacement assay an active substance lowers the binding of a labelled ligand.

Another assay deals with mice. Description: Mouse 'tetrad' of tests after i.v. administration (Example 2). The note with it: for ED50: Mus musculus, iv.
[3] abbreviates: read-out: Average ED50 for the four effects.
The mark [4] stands for this setting: read-out: R.I. (relative immobility) ED50.
[5] abbreviates: read-out: R.T. (rectal temperature) ED50.
The mark [6] stands for this setting: read-out: S.A. (spontaneous activity) ED50.
The mark [7] stands for this setting: read-out: T.F. (tail-flick) ED50.
The mark [8] stands for this setting: VR1 (EC50, nM), Ca2+ in HEK cells with human VR1.
The mark [9] stands for this setting: CB1 (Ki, nM), determined in the presence of PMSF, [3H]CP 55,940, PMSF 100 μM.
The mark [10] stands for this setting: CB1 (Ki, nM), [3H]CP 55,940, without PMSF.
The mark [11] stands for this setting: VR1 EC50, HEK cells with human VR1.

Like-named read-outs stand apart in the source and are kept apart here. A value given as a limit tells only on which side of the number the result lay.

CB1 receptors, sequence (P20272 whole entry): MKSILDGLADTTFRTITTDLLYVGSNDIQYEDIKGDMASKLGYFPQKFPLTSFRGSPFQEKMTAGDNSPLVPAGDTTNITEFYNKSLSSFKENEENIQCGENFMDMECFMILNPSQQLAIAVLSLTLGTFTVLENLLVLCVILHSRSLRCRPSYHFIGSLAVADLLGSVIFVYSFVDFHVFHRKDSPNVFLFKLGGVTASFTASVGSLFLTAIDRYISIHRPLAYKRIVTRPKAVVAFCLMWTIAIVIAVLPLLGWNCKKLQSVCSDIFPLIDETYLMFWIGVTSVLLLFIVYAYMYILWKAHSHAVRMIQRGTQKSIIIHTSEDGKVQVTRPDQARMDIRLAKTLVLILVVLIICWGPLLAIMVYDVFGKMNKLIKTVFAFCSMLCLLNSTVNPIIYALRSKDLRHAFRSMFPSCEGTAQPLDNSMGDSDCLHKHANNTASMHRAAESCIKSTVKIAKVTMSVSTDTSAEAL
human VR1 receptor, sequence (Q8NER1 whole entry): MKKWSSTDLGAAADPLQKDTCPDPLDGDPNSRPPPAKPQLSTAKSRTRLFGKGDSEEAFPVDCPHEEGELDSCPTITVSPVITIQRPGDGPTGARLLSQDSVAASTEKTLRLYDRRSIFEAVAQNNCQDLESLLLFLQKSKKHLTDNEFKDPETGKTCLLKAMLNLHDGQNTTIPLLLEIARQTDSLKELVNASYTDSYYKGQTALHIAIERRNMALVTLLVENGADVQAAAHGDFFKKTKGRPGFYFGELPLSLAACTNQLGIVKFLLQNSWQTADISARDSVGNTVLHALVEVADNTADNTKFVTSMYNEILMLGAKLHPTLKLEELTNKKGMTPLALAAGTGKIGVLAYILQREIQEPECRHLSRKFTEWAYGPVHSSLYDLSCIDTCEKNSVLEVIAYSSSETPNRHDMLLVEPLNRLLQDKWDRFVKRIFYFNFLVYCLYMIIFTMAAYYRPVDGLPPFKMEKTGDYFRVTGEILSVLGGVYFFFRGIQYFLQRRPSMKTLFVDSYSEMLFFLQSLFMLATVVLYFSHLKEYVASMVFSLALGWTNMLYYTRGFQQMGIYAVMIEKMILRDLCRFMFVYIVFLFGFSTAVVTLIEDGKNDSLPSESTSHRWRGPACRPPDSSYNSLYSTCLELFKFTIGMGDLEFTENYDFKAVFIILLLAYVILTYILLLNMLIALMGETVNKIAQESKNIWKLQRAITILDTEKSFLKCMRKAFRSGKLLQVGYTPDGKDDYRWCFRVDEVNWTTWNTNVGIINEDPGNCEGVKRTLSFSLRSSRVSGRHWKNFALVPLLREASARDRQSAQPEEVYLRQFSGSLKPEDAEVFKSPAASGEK

Usually IC50 stands for the midpoint of a concentration-inhibition curve. With `CCCCC/C=C\C/C=C\C/C=C\C/C=C\CCCC(=O)Nc1ccc(O)cc1` [AM404, reference compound], the IC50 in the assay with AMT was determined as 8100 ± 2600 nM; in assay [1], 8100 nM.

For orientation: EC50 means the concentration at which the effect is half-maximal. The Ki is the equilibrium dissociation constant of an inhibitor or competing ligand from its target. What is called ED50 is the dose at which the effect has come halfway, by size or by number of responders. As for `C[C@H](CO)NC(=O)CCC/C=C\C/C=C\C/C=C\C/C=C\C(C)(C)CCCCO` [Compound O-1811, (R)-(16,16-Dimethyl-20-hydroxyeicosa-cis-5,8,11,14-tetraenoyl)-1′-hydroxy-2′-propylamine], at human VR1 receptor (Ca2+ in HEK cells with human VR1, read-out: VR1 (EC50)), the EC50 was found to be 724 ± 99 nM. The VR1 efficacy on human VR1 receptor was determined as 62.5 ± 0.8%. The Ki at CB2 receptors (rat spleen membranes, read-out: CB2 (Ki)) was determined as 800 ± 150 nM; on CB1 receptors ([3H]CP 55,940, PMSF 100 μM, read-out: CB1 (Ki, nM), determined in the presence of PMSF), 116 ± 11.1 nM; at CB1 receptors ([3H]CP 55,940, without PMSF, read-out: CB1 (Ki)), 115 ± 25.2 nM. In addition, the IC50 in assay [2] ([14C]AEA hydrolysis, N18TG2 cell membranes, read-out: FAAH (IC50)) was above 50000 nM; in assay [1], 42500 ± 3300 nM. Moreover, the ED50 with mice (setting [3]) was determined as 0.773 mg/kg; with mice (setting [4]), 0.663 mg/kg; in the assay with mice (setting [5]), 0.188 mg/kg; with mice (setting [6]), 0.996 mg/kg; with mice (setting [7]) it was 1.24 mg/kg. Moreover, the “fold more potent in reducing body temperature than in increasing tail-flick latency” value with mice (mice, i.v.) is “approximately 10 fold”.

In the case of `COc1cc(CNC(=O)CCC/C=C\C/C=C\C/C=C\C/C=C\C(C)(C)CCCCO)ccc1O` [Compound O-1856, 16,16-Dimethyl-20-hydroxy-eicosa-5,8,11,14-all-cis-tetraenoic acid (4-hydroxy-3-methoxy-benzyl) amide], a half-maximal effect on human VR1 receptor (setting [8]) (EC50) was put at 5 ± 0.7 nM. For the same molecule, the VR1 efficacy on human VR1 receptor worked out at 83.9 ± 5.1%. The values for the Ki at CB2 receptors, at CB1 receptors (setting [9]) and on CB1 receptors (setting [10]) were above 10000 nM, 1070 ± 134 nM and 790 nM, respectively. For the same molecule, the IC50 in assay [2] came out at 14500 ± 3400 nM; in assay [1], 42000 nM; in assay [1] (listed as 0-1856), 40000 ± 3800 nM. Further, the ED50 in the assay with mice (setting [3]) was determined as 0.873 mg/kg; with mice (setting [4]), 0.76 mg/kg; in the assay with mice (setting [5]), 1.45 mg/kg; with mice (setting [6]) it was 0.47 mg/kg; in the assay on mice (setting [7]), 0.81 mg/kg.

In the case of `C[C@H](CO)NC(=O)CCC/C=C\C/C=C\C/C=C\C/C=C\C(C)(C)CCCCBr` [Compound O-1860, (R)-(20-Bromo-16,16-Dimethyleicosa-cis-5,8,11,14-tetraenoyl)-1′-hydroxy-2′-propylamine], the half-maximal effective concentration (EC50) amounted to 371 ± 34 nM at human VR1 receptor (setting [8]) and 370 nM at human VR1 receptor (setting [11]). Besides, the VR1 efficacy at human VR1 receptor worked out at 50.0%; at human VR1 receptor (listed as 0-1860), 62.1 ± 5.7%. The Ki was above 10000 nM on CB2 receptors, 1 ± 0.1 nM at CB1 receptors (setting [9]) and 2.2 nM on CB1 receptors (setting [10]). The values for the IC50 in assay [2] and in assay [1] were above 50000 nM and 40000 ± 4500 nM, respectively. The ED50 in the assay on mice (setting [3]) stood at 0.388 mg/kg; in the assay with mice (setting [4]), 0.43 mg/kg; in the assay with mice (setting [5]), 0.44 mg/kg; in the assay with mice (setting [6]) it was 0.39 mg/kg; in the assay on mice (setting [7]), 0.29 mg/kg.

On to `C[C@H](CO)NC(=O)CCC/C=C\C/C=C\C/C=C\C/C=C\C(C)(C)CCCCC#N` [Compound O-1812, (R)-(20-cyano-16,16-Dimethyleicosa-cis-5,8,11,14-tetraenoyl)-1′-hydroxy-2′-propylamine], for which the figures for the EC50 at human VR1 receptor (setting [8]) and at human VR1 receptor (setting [11]) were 1950 ± 184 nM and 1900 nM, respectively. Moreover, the VR1 efficacy worked out at 50.0% at human VR1 receptor and 50.0 ± 1.6% on human VR1 receptor (listed as 0-1812). The Ki at CB2 receptors was found to be 3870 ± 235 nM; on CB1 receptors (setting [9]) it was 4.6 ± 0.4 nM; at CB1 receptors (setting [10]) it was 3.4 ± 0.5 nM. Also, the IC50 was above 50000 nM in assay [2] and 37000 ± 4500 nM in assay [1]. Besides, the “fold more potent on CB1 than on CB2” value on CB1 receptors is reported as 1000 fold. On CB1 receptors, the “fold more potent on CB1 than on VR1” value was found to be 580 fold. Also, the ED50 with mice (setting [3]) was 0.025 mg/kg; with mice (setting [4]), 0.017 mg/kg; with mice (setting [5]) it was 0.05 mg/kg; with mice (setting [6]), 0.017 mg/kg; in the assay with mice (setting [7]) it was 0.014 mg/kg.

Source of the values: patent US20040122089A1, “Novel eicosanoid analgesics” (priority 2001, published 2004).
